Bridge positions count the residues as written; N and C are the ends. Square brackets hold non-standard residues; d marks the D form. Peptide text beside a SMILES is read from it. Hyp = O=C(O)[C@@H]1C[C@@H](O)CN1; Cit = NC(=O)NCCC[C@H](N)C(=O)O A value given as a limit tells only on which side of the number the result lay.

The nature of data set [1]: Physical stability of peptide analogues (Thioflavin T fibrillation). The format is physicochemical. The conditions noted are these: maximum ThT signal normalized between hAMY maximum and buffer background; 40° C., shaking, four days; pH 7 per table title. An outline of the steps: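 Maximum ThT emission at 480 nm, after LOESS smoothing, is given as percent of the span from buffer background to hAMY. Conditions: 50 mM buffer at pH 4 or 7, 4 μM dye, 40 °C, repeated shaking, readings every 10 min for four days.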

Data set [2] has as its target hAM1 receptor (Homo sapiens, UniProt O60895+Q16602). Briefly: cAMP assay for in vitro receptor activation, hAM1-R. Type of data set: cell-based. The conditions noted are these: cAMP assay, hAM1 receptor; read-out: hAM1R EC50. An outline of the steps: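 A subcloned monoclonal line stably expressing hAM1 receptor is thawed and plated at 8000 cells/well. The assay buffer is DPBS with 0.05% casein and 0.5 mM IBMX, and receptor activation is followed by cAMP levels.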
(In general: Changes in cAMP serve as a functional read-out for many G protein-coupled receptors.)

Data set [3] deals with T1, hAMY3 receptor (Homo sapiens, UniProt O60896+P30988).
T1 sequence (P30988 25-474): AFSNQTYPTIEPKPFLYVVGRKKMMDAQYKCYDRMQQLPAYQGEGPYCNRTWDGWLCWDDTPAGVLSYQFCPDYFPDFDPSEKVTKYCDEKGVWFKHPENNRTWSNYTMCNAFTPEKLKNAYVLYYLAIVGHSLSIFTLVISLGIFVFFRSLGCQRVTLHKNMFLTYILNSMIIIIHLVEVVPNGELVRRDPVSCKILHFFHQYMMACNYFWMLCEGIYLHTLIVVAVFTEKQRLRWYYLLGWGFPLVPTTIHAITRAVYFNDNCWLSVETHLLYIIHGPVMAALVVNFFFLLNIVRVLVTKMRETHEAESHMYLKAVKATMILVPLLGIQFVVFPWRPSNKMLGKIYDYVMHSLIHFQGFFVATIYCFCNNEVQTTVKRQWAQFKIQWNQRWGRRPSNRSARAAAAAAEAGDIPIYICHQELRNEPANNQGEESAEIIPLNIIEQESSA
T1 sequence (O60896 24-148 partner): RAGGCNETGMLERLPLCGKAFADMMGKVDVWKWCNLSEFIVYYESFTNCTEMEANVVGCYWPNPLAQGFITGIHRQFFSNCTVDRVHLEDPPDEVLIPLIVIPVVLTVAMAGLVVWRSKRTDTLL
The experiment in a line: cAMP assay for in vitro receptor activation, hAMY3-R. The conditions noted are these: cAMP assay, hAMY3 receptor; read-out: hAMY3R EC50. The format is cell-based. The gist of the method: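 Stable hAMY3 cells; DPBS + 0.05% casein + 0.5 mM IBMX; graded compound doses, 30 min, RT; cAMP via HTRF Gs kit, TR-FRET read at 1 h.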

Sequence of hAM1 receptor (Q16602 23-461): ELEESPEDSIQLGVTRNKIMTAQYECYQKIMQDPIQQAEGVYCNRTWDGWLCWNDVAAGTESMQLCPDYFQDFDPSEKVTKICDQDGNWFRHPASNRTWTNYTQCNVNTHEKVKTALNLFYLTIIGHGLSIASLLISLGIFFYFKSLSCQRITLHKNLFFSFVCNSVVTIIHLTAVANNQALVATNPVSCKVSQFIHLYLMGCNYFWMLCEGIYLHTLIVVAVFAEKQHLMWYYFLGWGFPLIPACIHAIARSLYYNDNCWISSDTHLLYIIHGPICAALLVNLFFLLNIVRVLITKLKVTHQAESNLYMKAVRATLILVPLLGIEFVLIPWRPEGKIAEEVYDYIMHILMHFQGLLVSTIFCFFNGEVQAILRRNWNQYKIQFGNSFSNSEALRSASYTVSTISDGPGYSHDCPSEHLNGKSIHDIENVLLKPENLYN
Sequence of hAM1 receptor (O60895 43-175 partner): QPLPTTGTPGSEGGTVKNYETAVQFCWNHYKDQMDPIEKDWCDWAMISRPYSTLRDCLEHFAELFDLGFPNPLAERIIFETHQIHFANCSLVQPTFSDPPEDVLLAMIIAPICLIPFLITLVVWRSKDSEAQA

In general, EC50 refers to the concentration at which the effect is half-maximal. For the compound `CC[C@H](C)[C@H](NC(=O)[C@H](CCC(N)=O)NC(=O)[C@H](Cc1c[nH]cn1)NC(=O)[C@H](C)NC(=O)[C@H](CC(C)C)NC(=O)[C@H](CCCNC(=N)N)NC(=O)[C@H](CCC(N)=O)NC(=O)[C@@H](NC(=O)[C@@H](NC(=O)[C@@H]1CSSC[C@H](NC(=O)[C@@H](N)CCCCN)C(=O)N[C@@H](CC(N)=O)C(=O)N[C@@H]([C@@H](C)O)C(=O)N[C@@H](C)C(=O)N[C@@H]([C@@H](C)O)C(=O)N1)[C@@H](C)O)C(C)C)C(=O)N[C@@H](Cc1ccc(O)cc1)C(=O)N[C@@H](CCC(N)=O)C(=O)N[C@@H](Cc1ccccc1)C(=O)N[C@H](C(=O)N[C@@H](CC(=O)O)C(=O)N[C@@H](CCCCN)C(=O)N[C@@H](CC(=O)O)C(=O)N[C@@H](C)C(=O)N[C@@H](CC(=O)O)C(=O)N[C@@H](CC(N)=O)C(=O)N[C@H](C(=O)N[C@@H](C)C(=O)N1CCC[C@H]1C(=O)N1CCC[C@H]1C(=O)N[C@H](C(=O)N[C@@H](CC(N)=O)C(=O)N[C@H](C(=O)NCC(=O)N[C@@H](CO)C(=O)N[C@@H](CC(N)=O)C(=O)NCC(=O)N1C[C@H](O)C[C@H]1C(N)=O)C(C)C)[C@@H](C)O)C(C)C)[C@@H](C)O` [compound 25] (H-KCNTATCTVQRLAHQIYQFTDKDADNVAPPTNVGSNG[Hyp]-NH2; disulfide 2-7; N-terminus assumed), the “Max ThT signal (%)” value in data set [1] is 33.400%. The EC50 in data set [2] is above 5000 nM; in data set [3], 0.008 nM.

`CC[C@H](C)[C@H](NC(=O)[C@H](CCC(N)=O)NC(=O)[C@H](Cc1c[nH]cn1)NC(=O)[C@H](C)NC(=O)[C@H](CC(C)C)NC(=O)[C@H](CCCNC(N)=O)NC(=O)[C@H](CCC(N)=O)NC(=O)[C@@H](NC(=O)[C@@H](NC(=O)[C@@H]1CSSC[C@H](NC(=O)CN)C(=O)N[C@@H](CCCNC(=N)N)C(=O)N[C@@H]([C@@H](C)O)C(=O)NCC(=O)N[C@@H]([C@@H](C)O)C(=O)N1)[C@@H](C)O)C(C)C)C(=O)N[C@@H](Cc1ccc(O)cc1)C(=O)N[C@@H](CCC(N)=O)C(=O)N[C@@H](Cc1ccccc1)C(=O)N[C@H](C(=O)N[C@@H](CC(=O)O)C(=O)N[C@@H](CCCCN)C(=O)N[C@@H](CC(=O)O)C(=O)N[C@@H](CCCCN)C(=O)N[C@@H](CC(=O)O)C(=O)N[C@@H](CC(N)=O)C(=O)N[C@H](C(=O)N[C@@H](C)C(=O)N1CCC[C@H]1C(=O)N[C@@H](CCCNC(=N)N)C(=O)N[C@@H](CO)C(=O)N[C@@H](CC(N)=O)C(=O)N[C@H](C(=O)NCC(=O)N1CCC[C@H]1C(=O)N[C@@H](CCC(N)=O)C(=O)NCC(=O)N1C[C@H](O)C[C@H]1C(N)=O)C(C)C)C(C)C)[C@@H](C)O` [compound 281] (H-GCRTGTCTVQ[Cit]LAHQIYQFTDKDKDNVAPRSNVGPQG[Hyp]-NH2; disulfide 2-7; N-terminus assumed): the “Max ThT signal (%)” value in data set [1] came to 22.650%. Moreover, the 50% effective concentration (EC50) is above 5000 nM in data set [2] and 0.034 nM in data set [3].

Turning to `CC[C@H](C)[C@H](NC(=O)[C@H](CCC(N)=O)NC(=O)[C@H](Cc1c[nH]cn1)NC(=O)[C@H](C)NC(=O)[C@H](CC(C)C)NC(=O)[C@H](CCCNC(=N)N)NC(=O)[C@H](CCC(N)=O)NC(=O)[C@@H](NC(=O)[C@@H](NC(=O)[C@@H]1CSSC[C@H](NC(=O)CN)C(=O)N[C@@H](CCCNC(=N)N)C(=O)N[C@@H]([C@@H](C)O)C(=O)NCC(=O)N[C@@H]([C@@H](C)O)C(=O)N1)[C@@H](C)O)C(C)C)C(=O)N[C@@H](Cc1ccc(O)cc1)C(=O)N[C@@H](CCC(N)=O)C(=O)N[C@@H](Cc1ccccc1)C(=O)N[C@H](C(=O)N[C@@H](CC(N)=O)C(=O)N[C@@H](CCCCN)C(=O)N[C@@H](CC(=O)O)C(=O)N[C@@H](CCCCN)C(=O)N[C@@H](CC(=O)O)C(=O)N[C@@H](CC(N)=O)C(=O)N[C@H](C(=O)N[C@@H](C)C(=O)N1CCC[C@H]1C(=O)N[C@@H](CCCNC(=N)N)C(=O)N[C@@H](CO)C(=O)N[C@@H](CCCCN)C(=O)N[C@H](C(=O)N[C@@H](CO)C(=O)N1CCC[C@H]1C(=O)N[C@@H](CCC(N)=O)C(=O)N[C@H](C(=O)N[C@@H](Cc1c[nH]c2ccccc12)C(N)=O)[C@@H](C)O)[C@@H](C)CC)C(C)C)[C@@H](C)O` [compound 226] (H-GCRTGTCTVQRLAHQIYQFTNKDKDNVAPRSKISPQTW-NH2; disulfide 2-7; N-terminus assumed), the “Max ThT signal (%)” value in data set [1] amounted to 27.000%. In addition, the figures for the half-maximal effective concentration (EC50) in data set [2] and in data set [3] were above 5000 nM and 0.186 nM, respectively.

As to `CC[C@H](C)[C@H](NC(=O)[C@H](CCC(N)=O)NC(=O)[C@H](Cc1c[nH]cn1)NC(=O)[C@H](C)NC(=O)[C@H](CC(C)C)NC(=O)[C@H](Cc1c[nH]c2ccccc12)NC(=O)[C@H](CCC(N)=O)NC(=O)[C@@H](NC(=O)[C@@H](NC(=O)[C@@H]1CSSC[C@H](NC(=O)[C@@H](N)CCCCN)C(=O)N[C@@H](CC(N)=O)C(=O)N[C@@H]([C@@H](C)O)C(=O)N[C@@H](C)C(=O)N[C@@H]([C@@H](C)O)C(=O)N1)[C@@H](C)O)C(C)C)C(=O)N[C@@H](Cc1ccc(O)cc1)C(=O)N[C@@H](CCC(N)=O)C(=O)N[C@@H](Cc1ccccc1)C(=O)N[C@H](C(=O)N[C@@H](CC(=O)O)C(=O)N[C@@H](CCCCN)C(=O)N[C@@H](CC(=O)O)C(=O)N[C@@H](CCCCN)C(=O)N[C@@H](CC(=O)O)C(=O)N[C@@H](CC(N)=O)C(=O)N[C@H](C(=O)N[C@@H](C)C(=O)N1CCC[C@H]1C(=O)N[C@H](C(=O)N[C@@H](CC(N)=O)C(=O)N[C@H](C(=O)NCC(=O)N[C@@H](CO)C(=O)N[C@@H](CC(N)=O)C(=O)NCC(=O)N1C[C@H](O)C[C@H]1C(N)=O)C(C)C)[C@@H](C)O)C(C)C)[C@@H](C)O` [compound 319] (H-KCNTATCTVQWLAHQIYQFTDKDKDNVAPTNVGSNG[Hyp]-NH2; disulfide 2-7; N-terminus assumed), in data set [1], the “Max ThT signal (%)” value is recorded as 3.900%. Moreover, the EC50 was above 5000 nM in data set [2] and 0.018 nM in data set [3].

Turning to `CC[C@H](C)[C@H](NC(=O)[C@H](CCC(N)=O)NC(=O)[C@H](Cc1c[nH]cn1)NC(=O)[C@H](C)NC(=O)[C@H](CC(C)C)NC(=O)[C@H](CCCNC(N)=O)NC(=O)[C@H](CCC(N)=O)NC(=O)[C@@H](NC(=O)[C@@H](NC(=O)[C@@H]1CSSC[C@H](NC(=O)CN)C(=O)N[C@@H](CCCNC(=N)N)C(=O)N[C@@H](Cc2ccccc2)C(=O)NCC(=O)N[C@@H]([C@@H](C)O)C(=O)N1)[C@@H](C)O)C(C)C)C(=O)N[C@@H](Cc1ccc(O)cc1)C(=O)N[C@@H](CCC(N)=O)C(=O)N[C@@H](Cc1ccccc1)C(=O)N[C@H](C(=O)N[C@@H](CC(=O)O)C(=O)N[C@@H](CCCCN)C(=O)N[C@@H](CC(=O)O)C(=O)N[C@@H](CCCCN)C(=O)N[C@@H](CC(=O)O)C(=O)N[C@@H](CC(N)=O)C(=O)N[C@H](C(=O)N[C@@H](C)C(=O)N1CCC[C@H]1C(=O)N[C@@H](CCCNC(=N)N)C(=O)N[C@@H](CO)C(=O)N[C@@H](CCCCN)C(=O)N[C@H](C(=O)N[C@@H](CO)C(=O)N1CCC[C@H]1C(=O)N[C@@H](CCC(N)=O)C(=O)NCC(=O)N1C[C@H](O)C[C@H]1C(N)=O)C(C)C)C(C)C)[C@@H](C)O` [compound 305] (H-GCRFGTCTVQ[Cit]LAHQIYQFTDKDKDNVAPRSKVSPQG[Hyp]-NH2; disulfide 2-7), the “Max ThT signal (%)” value in data set [1] was found to be 24.600%. Also, the EC50 in data set [2] is above 5000 nM; in data set [3], 0.085 nM.

For `CC[C@H](C)[C@H](NC(=O)[C@H](CCC(N)=O)NC(=O)[C@H](Cc1c[nH]cn1)NC(=O)[C@H](C)NC(=O)[C@H](CC(C)C)NC(=O)[C@H](Cc1c[nH]c2ccccc12)NC(=O)[C@H](CCC(N)=O)NC(=O)[C@@H](NC(=O)[C@@H](NC(=O)[C@@H]1CSSC[C@H](NC(=O)CN)C(=O)N[C@@H](CCCNC(=N)N)C(=O)N[C@@H]([C@@H](C)O)C(=O)NCC(=O)N[C@@H]([C@@H](C)O)C(=O)N1)[C@@H](C)O)C(C)C)C(=O)N[C@@H](Cc1ccc(O)cc1)C(=O)N[C@@H](CCC(N)=O)C(=O)N[C@@H](Cc1ccccc1)C(=O)N[C@H](C(=O)N[C@@H](CC(=O)O)C(=O)N[C@@H](CCCCN)C(=O)N[C@@H](CC(=O)O)C(=O)N[C@@H](CCCCN)C(=O)N[C@@H](CC(=O)O)C(=O)N[C@@H](CC(N)=O)C(=O)N[C@H](C(=O)N[C@@H](C)C(=O)N1CCC[C@H]1C(=O)N[C@@H](CCCNC(=N)N)C(=O)N[C@@H](CO)C(=O)N[C@@H](CC(N)=O)C(=O)N[C@H](C(=O)NCC(=O)N1CCC[C@H]1C(=O)N[C@@H](CCC(N)=O)C(=O)NCC(=O)N1C[C@H](O)C[C@H]1C(N)=O)C(C)C)C(C)C)[C@@H](C)O` [compound 342] (H-GCRTGTCTVQWLAHQIYQFTDKDKDNVAPRSNVGPQG[Hyp]-NH2; disulfide 2-7), the “Max ThT signal (%)” value in data set [1] is given as 19.800%. Further, the figures for the EC50 in data set [2] and in data set [3] were above 5000 nM and 0.054 nM, respectively.

(Values after patent publication US12139520B2 (priority 2020, dated 2024).)
